These results are taken from patent US20240417410A1, “TRICYCLIC COMPOUNDS FOR THE TREATMENT OF CANCER” (Hoffmann-La Roche Inc., priority 2023, published 2024).

Test [1] concerns phosphorylation of ERK, KRAS G12C in NCI-H358 cells. The experiment in a line: pERK inhibition assay. It counts as cell-based. The gist of the method: (§1)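 NCI-H358 (KRAS G12C), AGS (G12D) and SW620 (G12V) cells plated overnight, then treated with compound for 4 h in 0.5% DMSO. After fixing and methanol permeabilisation, phospho-ERK was detected by in-cell ELISA (HRP/TMB, OD450). IC50 from a 4-parameter sigmoidal fit.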

Test [2] has as its system phosphorylation of ERK, KRAS G12D in AGS cells. The experiment in a line: pERK inhibition assay. The format is cell-based. In short, it runs like this: as §1
The test system of test [3] is phosphorylation of ERK, KRAS G12V in SW620. Briefly: pERK inhibition assay. It counts as cell-based. The following applies: SW620 cells. In short, it runs like this: as §1
In another test the target is KRAS G12C-BRAF complex (Homo sapiens (Human), UniProt P01116+P62937, G12C). The experiment in a line: KRAS-BRAF with CYPA (500 nM) interaction assay (TR-FRET, Example 136). It counts as biochemical. Particulars: KRAS G12C-BRAF disruption.
KRAS G12C-BRAF complex, sequence (P01116-2 other isoform, or with tags, fused parts or gaps G12C): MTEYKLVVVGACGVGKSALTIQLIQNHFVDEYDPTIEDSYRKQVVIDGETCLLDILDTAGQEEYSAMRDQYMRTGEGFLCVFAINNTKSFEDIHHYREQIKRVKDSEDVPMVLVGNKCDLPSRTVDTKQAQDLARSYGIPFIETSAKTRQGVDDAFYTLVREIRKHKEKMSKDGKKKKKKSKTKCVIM
KRAS G12C-BRAF complex, sequence (P62937 whole entry): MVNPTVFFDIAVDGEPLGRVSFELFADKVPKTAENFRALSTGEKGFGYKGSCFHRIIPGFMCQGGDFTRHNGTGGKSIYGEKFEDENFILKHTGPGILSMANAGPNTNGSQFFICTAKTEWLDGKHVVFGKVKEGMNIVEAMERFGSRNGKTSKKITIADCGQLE
In test [4] the test system is NCI-H358 cells (KRAS G12C). The experiment in a line: Cell viability assay (Cell Counting Kit-8, 3-day). It counts as cell-based, human. The following applies: NCI-H358, 72 hrs incubation. In short, it runs like this:
(§2)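 72-hr compound treatment, 0.5% DMSO final; NCI-H358 seeded 5,000 cells/well, AGS and SW620 2,000 cells/well. Endpoint: CCK-8, 2-hr development, OD450 minus OD650.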
(In general: Tetrazolium assays rely on reduction of a dye to a coloured formazan, in cell work by metabolically active cells.)

A further test concerns AGS cells (KRAS G12D). The experiment in a line: Cell viability assay (Cell Counting Kit-8, 3-day). It counts as cell-based, human. The following applies: 72 hrs incubation. In short, it runs like this:
as §2

A further test concerns SW620 cells (KRAS G12V). Briefly: Cell viability assay (Cell Counting Kit-8, 3-day). It counts as cell-based, human. The following applies: SW620, 72 hrs incubation. The gist of the method: as §2

For the molecule `CO[C@@H](C)c1ncc(N2CCN(C[C@@H]3CNCCO3)CC2)cc1-c1c2c3cc(cc4c3n1CCC4)-c1csc(n1)C[C@H](NC(=O)[C@H]1[C@H](C)[C@@H]1C)C(=O)N1CCC[C@H](N1)C(=O)OCC(C)(C)C2` (atropisomer, axis not shown; (M)) [Example 119, (1r,2S,3R)-N-[(7S,13S)-(20M)-20-[2-[(1S)-1-methoxyethyl]-5-[4-[[(2S)-morpholin-2-yl]methyl]piperazin-1-yl]-3-pyridyl]-17,17-dimethyl-8,14-dioxo-15-oxa-4-thia-9,21,30,31-tetrazahexacyclo[23.3.1.1^2,5.1^9,13.0^19,27.0^21,26]hentriaconta-1 (28),2,5 (31),19,25 (29),26-hexaen-7-yl]-2,3-dimethyl-cyclopropanecarboxamide], the IC50 (in general, the concentration at which inhibition is half-maximal) in test [1] (Homo sapiens, NCI-H358, 4 h) worked out at 1.7 nM; in test [2] (Homo sapiens, AGS, 4 h) it was 6.9 nM; in test [3] (Homo sapiens, SW-620, 4 h), 1.2 nM; against KRAS G12C-BRAF complex, 9.3 nM; in test [4] (Homo sapiens, NCI-H358, 72 h), 3.5 nM; with AGS cells (KRAS G12D) (Homo sapiens, 72 h), 4.4 nM. This molecule also showed an IC50 with SW620 cells (KRAS G12V) (Homo sapiens, SW-620) of 0.8 nM.

Consider `CO[C@@H](C)c1ncc(N2CCN(C)CC2)cc1-c1c2c3cc(cc4c3n1CCC4)-c1csc(n1)C[C@H](NC(=O)[C@@H]1C[C@H]1c1cncc(C)c1)C(=O)N1CCC[C@H](N1)C(=O)OCC(C)(C)C2` (atropisomer, axis not shown; (M)) [Example 120, (1R,2R)-N-[(7S,13S)-(20M)-20-[2-[(1S)-1-methoxyethyl]-5-(4-methylpiperazin-1-yl)-3-pyridyl]-17,17-dimethyl-8,14-dioxo-15-oxa-4-thia-9,21,30,31-tetrazahexacyclo[23.3.1.1^2,5.1^9,13.0^19,27.0^21,26]hentriaconta-1 (28),2,5 (31), 19,25 (29),26-hexaen-7-yl]-2-(5-methyl-3-pyridyl)cyclopropanecarboxamide], for which the IC50 in test [1] (Homo sapiens, NCI-H358, 4 h) turned out to be 1.1 nM; in test [2] (Homo sapiens, AGS, 4 h), 2.9 nM; in test [3] (Homo sapiens, SW-620, 4 h) it was 0.9 nM; against KRAS G12C-BRAF complex, 20.4 nM; in test [4] (Homo sapiens, NCI-H358, 72 h) it was 1.4 nM; with AGS cells (KRAS G12D) (Homo sapiens, 72 h), 2.2 nM. Further, inhibition in the test on SW620 cells (KRAS G12V) (Homo sapiens, SW-620) was half-maximal at 0.4 nM (IC50).

With `CO[C@@H](C)c1ncc(N2CCN(CCN3CCCC3=O)CC2)cc1-c1c2c3cc(cc4c3n1CCC4)-c1csc(n1)C[C@H](NC(=O)[C@H]1[C@H](C)[C@@H]1C)C(=O)N1CCC[C@H](N1)C(=O)OCC(C)(C)C2` (atropisomer, axis not shown; (M)) [Example 121, (1r,2R,3S)-N-[(7S,13S)-(20M)-20-[2-[(1S)-1-methoxyethyl]-5-[4-[2-(2-oxopyrrolidin-1-yl)ethyl]piperazin-1-yl]-3-pyridyl]-17,17-dimethyl-8,14-dioxo-15-oxa-4-thia-9,21,30,31-tetrazahexacyclo[23.3.1.1^2,5.1^9,13.0^19,27.0^21,26]hentriaconta-1 (28),2,5 (31), 19,25 (29),26-hexaen-7-yl]-2,3-dimethyl-cyclopropanecarboxamide], the IC50 in test [1] (Homo sapiens, NCI-H358, 4 h) was 0.9 nM; in test [2] (Homo sapiens, AGS, 4 h), 3.4 nM; in test [3] (Homo sapiens, SW-620, 4 h) it was 0.3 nM; on KRAS G12C-BRAF complex, 13 nM; in test [4] (Homo sapiens, NCI-H358, 72 h), 1.6 nM; with AGS cells (KRAS G12D) (Homo sapiens, 72 h), 2.4 nM. In the test with SW620 cells (KRAS G12V) (Homo sapiens, SW-620), the IC50 came out at 0.3 nM.

Consider `CO[C@@H](C)c1ncc(N2CCN(CCC(C)(C)OC)CC2)cc1-c1c2c3cc(cc4c3n1CCC4)-c1csc(n1)C[C@H](NC(=O)[C@H]1[C@H](C)[C@@H]1C)C(=O)N1CCC[C@H](N1)C(=O)OCC(C)(C)C2` (atropisomer, axis not shown; (M)) [Example 123, (1r,2R,3S)-N-[(7S,13S)-(20M)-20-[2-[(1S)-1-methoxyethyl]-5-[4-(3-methoxy-3-methyl-butyl)piperazin-1-yl]-3-pyridyl]-17,17-dimethyl-8,14-dioxo-15-oxa-4-thia-9,21,30,31-tetrazahexacyclo[23.3.1.1^2,5.1^9,13.0^19,27.0^21,26]hentriaconta-1 (28),2,5 (31), 19,25 (29),26-hexaen-7-yl]-2,3-dimethyl-cyclopropanecarboxamide], for which the IC50 in test [1] (Homo sapiens, NCI-H358, 4 h) is 0.8 nM; in test [2] (Homo sapiens, AGS, 4 h) it was 7.1 nM; in test [3] (Homo sapiens, SW-620, 4 h) it was 0.6 nM; against KRAS G12C-BRAF complex, 13.7 nM; in test [4] (Homo sapiens, NCI-H358, 72 h), 3 nM; in the test on AGS cells (KRAS G12D) (Homo sapiens, 72 h), 5.1 nM. Further, it took 0.6 nM to reach half-maximal inhibition in the test on SW620 cells (KRAS G12V) (Homo sapiens, SW-620) (IC50).

Consider `CO[C@@H](C)c1ncc(N2CCN(C)CC2)cc1-c1c2c3cc(c(F)c4c3n1CCC4)-c1csc(n1)C[C@H](NC(=O)[C@H]1[C@H](C)[C@@H]1C)C(=O)N1CCC[C@H](N1)C(=O)OCC(C)(C)C2` (atropisomer, axis not shown; (M)) [Example 124, (1r,2S,3R)-N-[(7S,13S)-29-fluoro-(20M)-20-[2-[(1S)-1-methoxyethyl]-5-(4-methylpiperazin-1-yl)-3-pyridyl]-17,17-dimethyl-8,14-dioxo-15-oxa-4-thia-9,21,30,31-tetrazahexacyclo[23.3.1.1^2,5.1^9,13.0^19,27.0^21,26]hentriaconta-1 (28),2,5 (31), 19,25 (29),26-hexaen-7-yl]-2,3-dimethyl-cyclopropanecarboxamide], for which the IC50 in test [1] (Homo sapiens, NCI-H358, 4 h) is 1.4 nM; in test [2] (Homo sapiens, AGS, 4 h), 15.7 nM; in test [3] (Homo sapiens, SW-620, 4 h), 0.7 nM; against KRAS G12C-BRAF complex, 16.2 nM; in test [4] (Homo sapiens, NCI-H358, 72 h) it was 8.9 nM; with AGS cells (KRAS G12D) (Homo sapiens, 72 h) it was 13.8 nM. The same molecule yielded an IC50 in the test on SW620 cells (KRAS G12V) (Homo sapiens, SW-620) of 1.6 nM.

As to `COC(C)c1ncc(N2CCN(C)CC2)cc1-c1c2c3cc(cc4c3n1CCO4)-c1csc(n1)CC(NC(=O)C1CC1C)C(=O)N1CCCC(N1)C(=O)OCC(C)(C)C2` [Example 17, (1S,2S)-N-[(7S,13S)-(20M)-20-[2-[(1S)-1-methoxyethyl]-5-(4-methylpiperazin-1-yl)-3-pyridyl]-17,17-dimethyl-8,14-dioxo-15,24-dioxa-4-thia-9,21,30,31-tetrazahexacyclo[23.3.1.1^2,5.1^9,13.0^19,27.0^21,26]hentriaconta-1 (28),2,5 (31),19,25 (29),26-hexaen-7-yl]-2-methyl-cyclopropanecarboxamide], the IC50 in test [1] (4 hours) is 2.9 nM; in test [2] (4 hours) it was 2.7 nM; in test [3] (4 hours), 1.8 nM; at KRAS G12C-BRAF complex, 25.4 nM; in test [4], 10.3 nM; with AGS cells (KRAS G12D), 21.7 nM. The molecule further came in with an IC50 in the test on SW620 cells (KRAS G12V) of 1.1 nM.

Consider `CO[C@@H](C)c1ncc(N2CCN(C)CC2)cc1-c1c2c3cc(cc4c3n1CCO4)-c1csc(n1)C[C@H](NC(=O)C1(C)CC1(F)F)C(=O)N1CCC[C@H](N1)C(=O)OCC(C)(C)C2` (stereo partly drawn) [Example 54, 2,2-difluoro-N-[(7S,13S)-(20M)-20-[2-[(1S)-1-methoxyethyl]-5-(4-methylpiperazin-1-yl)-3-pyridyl]-17,17-dimethyl-8,14-dioxo-15,24-dioxa-4-thia-9,21,30,31-tetrazahexacyclo[23.3.1.1^2,5.1^9,13.0^19,27.0^21,26]hentriaconta-1 (29),2,5 (31), 19,25,27-hexaen-7-yl]-1-methyl-cyclopropanecarboxamide], for which the IC50 in test [1] (Homo sapiens, NCI-H358, 4 h) was found to be 1.3 nM; in test [2] (Homo sapiens, AGS, 4 h) it was 8.8 nM; in test [3] (Homo sapiens, SW-620, 4 h), 1 nM; on KRAS G12C-BRAF complex, 23.3 nM; in test [4] (Homo sapiens, NCI-H358, 72 h), 12.1 nM; in the test on AGS cells (KRAS G12D) (Homo sapiens, 72 h), 36.8 nM. In addition, half-maximal inhibition with SW620 cells (KRAS G12V) (Homo sapiens, SW-620) (IC50) was put at 3 nM.
